Data reported in US8809377B2, “Deubiquitinase inhibitors and methods for use of the same” (The Regents of the University of Michigan, priority 2010, dated 2014).
Residues, ends and D or L forms follow the SMILES beside them. *: point of attachment. Cbz = O=C(OCc1ccccc1)*

What was measured:
ubiquitinated proteins = experiment: Ubiquitin immunoblot of cell extracts; assay type: cell-based; conditions: for accumulation of ubiquitinated proteins: Z138 cells; for ubiquitinated protein levels: CML cells
Procedure: (§1) Total cell lysates were prepared by boiling and sonicating cell pellets in 1× Laemmli reducing sample buffer. To prepare detergent soluble and insoluble fractions, cells were lysed in cold isotonic lysis buffer [10 mM Tris-HCl (pH 7.5), 0.5% Triton X-100, 150 mM NaCl along with Mini-Complete and PhosSTOP] for 15 min on ice and centrifuged 10 min at 20,000 RCF. The clarified supernatant was used as the detergent soluble cell fraction. The residual pellet was washed and extracted in Laemmli reducing sample buffer and briefly sonicated to derive the detergent insoluble fraction. Equal volumes of cellular lysate or equal protein amounts were electrophoresed on SDS-PAGE gels and transferred to nitrocellulose membranes (Whatmann, Dassel, Germany). Proteins were detected by immunoblotting.
Whole cell lysates were prepared by boiling and sonicating the cell pellets in 1× Laemmli reducing sample buffer. To prepare detergent soluble and insoluble fractions, cells were lysed in cold isotonic lysis buffer [10 mM Tris-HCl (pH 7.5), 0.5% Triton X-100, 150 mM NaCl along with Mini-Complete and PhosSTOP] for 15 min on ice and centrifuged 10 minutes at 20,000 RCF. The clarified supernatant was used as a source of the detergent soluble cell fraction. The detergent insoluble fraction was extracted by the sonication of residual pellet in equal volumes of boiling 1× Laemmli reducing sample buffer. Equal volumes of cellular lysate or equal protein amounts were electrophoresed on SDS-PAGE gels.

DUB activity = experiment: Western / HA-UbVS labeling of DUB activity in intact cells; assay type: cell-based; conditions: for DUBs labeling (HA-UbVS): Z138 treated cells, AG490 250 μM
Procedure: (§2) To assay for changes in activity of cellular deubiquitinase enzymes, leukemic cells were lysed in DUB buffer (50 mM Tris pH 7.4, 5 mM MgCl2, 150 mM NaCl) for 10 min at 4° C. The lysates were centrifuged at 20,000 RCF for 10 min and the supernatant was used for DUB labeling. Equal amounts of lysate were incubated with 500 ng of HA-UbVs for 1 hr at room temperature, followed by boiling in reducing sample buffer and resolving by SDS-PAGE. HA immunoblotting was used to detect DUB labeling.
as §2, with “Z138 and HEK293” for “leukemic”, “RFC” for “RCF”, “SDS-PAGE. After protein transfer to nitrocellulose membranes,” for “SDS-PAGE.”
(§3) Cancer Res, 2010. 70(22): p. […] Blood, 2011. 117(11): p. […] Biochem Pharmacol, 2011. 82(4): p. […] Blood, 2007. 109(8): p. 3470-8.

20S human proteasome = target: T1, 20S human proteasome (Homo sapiens, UniProt P28074); experiment: Proteasome activity assay on purified 20S proteasome; assay type: biochemical; conditions: 5 μM
T1 construct: purchased BostonBiochem
Procedure: (§4) Fluorogenic substrate Suc-LLVY-AMC was used to assay for the chymotryptic-like activity of the 20S proteasome. To assay for in vivo proteasome inhibition cells were treated with WP1130 (5 μM) or MG132 (5 μM) for 2 hours and lysed in ice-cold lysis buffer (50 mM HEPES, pH 7.5, 5 mM EDTA, 150 mM NaCl, 1% Triton X-100). Lysates were clarified by centrifugation at 20,000 RCF for 10 min and equal amounts of protein from each sample were incubated at 37° C. with 100 μM fluorogenic substrate. To assay for direct inhibition of the 20S proteasome in vitro, purified 20S human proteasome (200 ng) was incubated with WP1130 (5 μM), MG132 (5 μM) or Lactacystin (5 μM) for 30 min at 37° C. before addition of the substrates. Fluorescence intensity was measured using a spectrophotometer at excitation 360 nm & emission 460 nm. Assays were performed in triplicate, and statistical significance was determined with a paired Student's t test.

20S proteasome = target: T2, 20S proteasome (Homo sapiens, UniProt P28074); experiment: Proteasome activity assay in treated cells (Suc-LLVY-AMC); assay type: cell-based; conditions: 5 μM, 2 hr
T2 construct: endogenous in cells; host or cells: K562 and other CML lines, Z138
Procedure: as §4

WDT2 = experiment: MTT cell growth and survival; assay type: cell-based; conditions: WDT2 cell line
Text: as §3

BV-173 and BV-173R = experiment: Anti-proliferative effects in CML lines; conditions: BV-173 (WT Bcr-Abl) and BV-173R (T315I)
Hsp70 = Hsp70 immunoblot; assay type: cell-based; conditions: CML cells
Murine norovirus (MNV) = experiment: Murine norovirus plaque assay; assay type: cell-based; conditions: MNV-1 (MOI 5), RAW 264.7, 20 μM, 8 and 12 hours postinfection
Procedure: Viral titers were determined by plaque assay.
Cells were treated with IFN-β as a positive anti-viral control.

tumor cell = experiment: Tumor cell proliferation; assay type: cell-based
Text: WP1051 and WP1052 represent two earlier chemical analogues of WP1130. […] This was unexpected as WP1051 and WP1052 are chemically identical but structurally distinct isomers. Since apoptosis/anti-proliferative properties of WP1130 are related to its ability to suppress cellular DUBs and induce accumulation of ubiquitinated proteins, WP1051 and 1052 were investigated whether they can affect protein ubiquitination and DUB activity.

USP9X = experiment: Western / HA-UbVS labeling of USP9X in intact cells or lysates; assay type: cell-based; conditions: Z138 treated cells
[1] = target: ubiquitin iso-peptidase activity; conditions: read-out: IC50, ubiquitin iso-peptidase activity in cells; cited from earlier work
Bcr-Abl = Bcr-Abl immunoblot of cell fractions; assay type: cell-based; conditions: CML cells; WP1130 5 μM, bortezomib 50 nM
cellular DUB activity = experiment: DUB activity of lysates from treated cells (Ub-AMC, Ub chain disassembly); assay type: cell-based; conditions: Z138 cells, 5 μM WP1130 or 50 nM bortezomib, by 4 hours
Procedure: Cells were lysed in ice cold DUB buffer containing 50 mM Tris-HCl, pH 7.5, 0.5% NP-40, 5 mM MgCl2, 150 mM NaCl and 1 mM phenylmethylsulfonylfluoride. Briefly, 5 μg of clarified lysate from untreated or treated cells was incubated with 500 nM Ub-AMC in a 100 μL reaction volume at 37° C. and the release of AMC fluorescence was recorded at ex/em 380/480 using a spectrofluorometer. USP9x was immunoprecipitated from 500 μg of cell lysate and incubated in DUB buffer containing NEM, WP1130 or DMSO in a 100 μL reaction volume for 30 min. The reaction was initiated by the addition of 500 nM Ub-AMC and the release of AMC-fluorescence was recorded.
In vitro disassembly of purified polyubiquitin chains (K-48/K-63 linked) was performed as previously described. Five μg of lysate from untreated or WP1130 treated cells were prepared in DUB buffer and incubated with K48- or K-63 linked chains (1 μg) for 10 min at 37° C. The extent of chain disassembly was assessed by ubiquitin immunoblotting.
Inhibition of cellular deubiquitinases could lead to an increase in high molecular weight ubiquitinated proteins in the absence of proteasome inhibition. […] To directly assess the impact of WP1130 on DUB activity in treated cells, cell lysates from control and treated cells were incubated with ubiquitin-AMC and fluorescence generated as a consequence of substrate cleavage was measured as an indicator of DUB activity.
The effect of WP1130 treatment on in vitro deubiquitination/disassembly of purified K48-linked or K63-linked polyubiquitin chains was evaluated. Lysates from WP1130 treated (2 hr) or untreated cells were incubated with 1 μg of unanchored polyubiquitin chains for 5, 10 and 15 min at 37° C.

K562 = experiment: MTT cell growth and survival; assay type: cell-based; conditions: K562 cell line
Text: as §3

pStat5 = experiment: Western blot of pStat5; assay type: cell-based; conditions: SET, HEL cell lines
Procedure: as §1, §3

T2 sequence (P28074 60-263): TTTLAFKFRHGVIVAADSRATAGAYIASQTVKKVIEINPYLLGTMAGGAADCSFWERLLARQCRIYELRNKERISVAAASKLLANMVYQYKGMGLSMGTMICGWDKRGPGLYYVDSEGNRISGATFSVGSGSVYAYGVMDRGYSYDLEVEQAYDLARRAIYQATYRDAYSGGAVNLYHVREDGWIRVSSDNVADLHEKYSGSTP

N#C/C(=C/c1ccc(O)c(O)c1)C(=O)NCc1ccccc1 [AG490, reference compound]
accumulation of ubiquitinated proteins (ubiquitinated proteins): did not induce a change | DUBs labeling (HA-UbVS) (DUB activity): no change

CC(C)C[C@@H](C=O)NC(=O)[C@H](CC(C)C)NC(=O)[C@H](CC(C)C)NC(=O)OCc1ccccc1 [MG-132, reference compound] (Cbz-Leu-Leu-Leu-aldehyde)
purified 20S proteasome activity (in vitro) (20S human proteasome): substantially inhibited | 20S proteasome chymotryptic-like activity in intact cells (in vivo) (20S proteasome): substantially inhibited

CCCC(NC(=O)/C(C#N)=C/c1cccc(Br)n1)c1ccc(OCOC)cc1 (stereo not shown) [Compound 6, (E)-3-(6-Bromopyridin-2-yl)-2-cyano-N-(1-(4-(methoxymethoxy)phenyl)butyl)acrylamide]
MTT Activity relative to WP1130 (WDT2): More sensitive

CCCC(NC(=O)/C(C#N)=C/c1cccc(Br)n1)c1ccc(O)cc1 (stereo not shown) [Compound 7, (E)-3-(6-Bromopyridin-2-yl)-2-cyano-N-(1-(4-hydroxyphenyl)butyl)acrylamide]
MTT Activity relative to WP1130 (WDT2): More sensitive

C=CCNC1=C2C[C@@H](C)C[C@H](OC)[C@H](O)[C@@H](C)/C=C(\C)[C@H](OC(N)=O)[C@@H](OC)/C=C\C=C(/C)C(=O)NC(=CC1=O)C2=O [Compound 17-AAG, 17-Allylamino-17-demethoxygeldanamycin, reference compound]
ubiquitinated protein levels (ubiquitinated proteins): no effect | anti-proliferative effects (BV-173 and BV-173R): anti-proliferative effects | Hsp70 protein levels (Hsp70): induction of Hsp70

C[C@H](NC(=O)/C(C#N)=C/c1ccc([N+](=O)[O-])c(O)c1)c1ccccc1 [WP1051]
accumulation of ubiquitinated proteins (ubiquitinated proteins): induce accumulation of ubiquitinated proteins in a dose-dependent fashion | viral titers by plaque assay (Murine norovirus (MNV)): reduced viral titers | suppression of tumor cell proliferation (tumor cell): effective in suppressing tumor cell proliferation | HA-UbVS labeling of USP9x (USP9X): could suppress the activity

CCCCC[C@H](O)C/C=C1/C(=O)C=C[C@@H]1C/C=C\CCCC(=O)O [D12-prostaglandin J2]
IC50 [1]: ~30 µM

O=C(C=Cc1ccccc1)C=Cc1ccccc1 [dibenzylideneacetone]
IC50 [1]: 20 to 40 µM

C[C@H](NC(=O)/C(C#N)=C/c1ccc(O)c([N+](=O)[O-])c1)c1ccccc1 [WP1052]
accumulation of ubiquitinated proteins (ubiquitinated proteins): failed to show any affect | viral titers by plaque assay (Murine norovirus (MNV)): not | suppression of tumor cell proliferation (tumor cell): failed to show any anti-tumor properties | DUBs labeling (HA-UbVS) (DUB activity): no DUB inhibition

CC(C)C[C@H](NC(=O)[C@H](Cc1ccccc1)NC(=O)c1cnccn1)B(O)O [Bortezomib, reference compound]
Bcr-Abl trafficking from detergent soluble to insoluble cell fraction (Bcr-Abl): no effect | ubiquitinated protein levels (ubiquitinated proteins): elevated | reduction of DUB activity (ubiquitin-AMC) (cellular DUB activity): no change

CCC[C@H](NC(=O)C(C#N)C(SCC(O)CO)c1cccc(Br)n1)c1ccccc1 (stereo partly drawn) [Compound 20, 3-(6-Bromopyridin-2-yl)-2-cyano-3-((2,3-dihydroxypropyl)thio)-N—((S)-1-phenylbutyl)propanamide]
MTT Activity relative to WP1130 (K562): More sensitive | Western Targets: pStat5 (pStat5): pStat5: down-regulated; DUB | Western Targets: DUB activity (DUB activity; SET, HEL cell lines): no effect

CCC(NC(=O)/C(C#N)=C/c1cccc(Br)n1)c1ccc(OCCOC)cc1 (stereo not shown) [Compound 17, (E)-3-(6-Bromopyridin-2-yl)-2-cyano-N-(1-(4-(2-methoxyethoxy)phenyl)propyl)-acrylamide]
MTT Activity relative to WP1130 (K562): Less sensitive

C=C1C(=O)C2=CC1CCC(=O)C1(C)CCC(OC(C)=O)C(C)(C)C1CC2O (stereo not shown) [shikoccin]
IC50 [1]: ~15 µM

COc1cc(/C=C/C(=O)CC(=O)/C=C/c2ccc(O)c(OC)c2)ccc1O [curcumin]
IC50 [1]: 80 to 100 µM
